Data from ChEMBL document CHEMBL1146270, “Identification of potent and selective TACE inhibitors via the S1 pocket” (Bioorg Med Chem Lett, 2007).

Key:
Interstitial collagenase = target: T1, Interstitial collagenase (Homo sapiens, UniProt P03956); experiment: Inhibition of MMP1
T1 sequence (P03956 whole entry): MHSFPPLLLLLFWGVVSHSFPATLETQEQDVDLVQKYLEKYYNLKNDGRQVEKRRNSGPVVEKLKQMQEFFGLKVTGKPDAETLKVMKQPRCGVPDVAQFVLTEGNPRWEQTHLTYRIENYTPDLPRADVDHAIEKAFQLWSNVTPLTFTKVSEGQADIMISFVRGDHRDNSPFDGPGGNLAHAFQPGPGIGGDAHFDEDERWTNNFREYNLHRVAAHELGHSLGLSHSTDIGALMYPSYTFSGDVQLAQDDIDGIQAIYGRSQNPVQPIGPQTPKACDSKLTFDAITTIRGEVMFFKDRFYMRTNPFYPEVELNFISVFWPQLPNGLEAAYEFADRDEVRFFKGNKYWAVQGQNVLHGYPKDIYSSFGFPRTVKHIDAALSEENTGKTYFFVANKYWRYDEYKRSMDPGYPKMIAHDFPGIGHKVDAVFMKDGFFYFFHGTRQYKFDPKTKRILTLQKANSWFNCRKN

[1] = target: 72 kDa type IV collagenase (Homo sapiens, UniProt P08253); experiment: Inhibition of MMP2
72 kDa type IV collagenase, sequence (P08253 whole entry): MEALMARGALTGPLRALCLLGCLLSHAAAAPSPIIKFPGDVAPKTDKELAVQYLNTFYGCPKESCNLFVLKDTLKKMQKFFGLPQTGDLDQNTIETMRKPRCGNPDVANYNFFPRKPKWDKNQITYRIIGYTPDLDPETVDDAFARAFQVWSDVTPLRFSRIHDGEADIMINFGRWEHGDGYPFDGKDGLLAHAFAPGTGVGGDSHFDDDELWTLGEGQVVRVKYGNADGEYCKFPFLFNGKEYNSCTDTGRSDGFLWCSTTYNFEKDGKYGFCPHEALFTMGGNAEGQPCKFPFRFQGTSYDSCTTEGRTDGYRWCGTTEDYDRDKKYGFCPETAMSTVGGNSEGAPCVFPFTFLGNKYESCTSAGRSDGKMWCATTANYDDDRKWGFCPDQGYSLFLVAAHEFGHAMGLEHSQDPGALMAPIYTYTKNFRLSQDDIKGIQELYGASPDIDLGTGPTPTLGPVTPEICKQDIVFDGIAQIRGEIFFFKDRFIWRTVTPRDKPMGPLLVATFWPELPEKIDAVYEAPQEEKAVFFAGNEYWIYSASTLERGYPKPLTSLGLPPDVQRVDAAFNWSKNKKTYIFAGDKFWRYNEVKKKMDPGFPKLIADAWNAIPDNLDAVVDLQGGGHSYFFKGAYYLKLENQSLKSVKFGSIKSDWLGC

Stromelysin-1 = Stromelysin-1 (Homo sapiens, UniProt P08254); experiment: Inhibition of MMP3
Stromelysin-1, sequence (P08254 whole entry): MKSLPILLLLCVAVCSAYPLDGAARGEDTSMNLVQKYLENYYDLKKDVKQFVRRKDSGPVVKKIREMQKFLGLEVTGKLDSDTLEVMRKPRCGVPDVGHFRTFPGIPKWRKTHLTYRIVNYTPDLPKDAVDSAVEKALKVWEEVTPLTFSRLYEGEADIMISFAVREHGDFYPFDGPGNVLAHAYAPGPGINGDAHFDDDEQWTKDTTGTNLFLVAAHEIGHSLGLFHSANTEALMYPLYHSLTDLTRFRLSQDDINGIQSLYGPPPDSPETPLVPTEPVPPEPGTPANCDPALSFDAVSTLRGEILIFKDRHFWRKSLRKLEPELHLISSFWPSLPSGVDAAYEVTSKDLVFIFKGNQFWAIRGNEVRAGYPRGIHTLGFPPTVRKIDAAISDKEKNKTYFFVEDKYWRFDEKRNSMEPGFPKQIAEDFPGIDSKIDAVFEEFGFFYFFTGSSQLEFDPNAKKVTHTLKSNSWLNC

[2] = target: Matrix metalloproteinase-9 (Homo sapiens, UniProt P14780); experiment: Inhibition of MMP9
Matrix metalloproteinase-9, sequence (P14780 whole entry): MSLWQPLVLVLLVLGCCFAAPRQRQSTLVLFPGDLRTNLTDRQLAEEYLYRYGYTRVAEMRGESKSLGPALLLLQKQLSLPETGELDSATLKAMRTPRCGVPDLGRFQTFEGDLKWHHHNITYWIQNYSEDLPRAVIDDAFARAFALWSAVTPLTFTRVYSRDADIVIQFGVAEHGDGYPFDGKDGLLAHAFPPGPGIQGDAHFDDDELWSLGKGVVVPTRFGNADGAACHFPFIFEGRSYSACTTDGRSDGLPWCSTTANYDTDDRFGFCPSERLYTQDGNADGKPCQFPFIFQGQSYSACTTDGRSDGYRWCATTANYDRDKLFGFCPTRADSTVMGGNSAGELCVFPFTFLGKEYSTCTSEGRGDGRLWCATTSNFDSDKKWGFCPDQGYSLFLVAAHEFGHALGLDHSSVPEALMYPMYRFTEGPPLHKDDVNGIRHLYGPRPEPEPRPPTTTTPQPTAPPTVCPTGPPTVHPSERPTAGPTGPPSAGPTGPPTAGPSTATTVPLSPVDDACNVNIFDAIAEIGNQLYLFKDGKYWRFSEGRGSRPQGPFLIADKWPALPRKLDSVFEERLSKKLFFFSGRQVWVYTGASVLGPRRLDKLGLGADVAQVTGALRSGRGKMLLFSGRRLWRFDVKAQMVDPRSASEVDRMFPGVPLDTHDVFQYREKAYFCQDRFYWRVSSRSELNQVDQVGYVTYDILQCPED

Collagenase 3 = Collagenase 3 (Homo sapiens, UniProt P45452)
[3] = target: T2, Disintegrin and metalloproteinase domain-containing protein 17 (Homo sapiens, UniProt P78536); experiment: Inhibition of TACE
T2 sequence (P78536 whole entry, the tested form may be a part): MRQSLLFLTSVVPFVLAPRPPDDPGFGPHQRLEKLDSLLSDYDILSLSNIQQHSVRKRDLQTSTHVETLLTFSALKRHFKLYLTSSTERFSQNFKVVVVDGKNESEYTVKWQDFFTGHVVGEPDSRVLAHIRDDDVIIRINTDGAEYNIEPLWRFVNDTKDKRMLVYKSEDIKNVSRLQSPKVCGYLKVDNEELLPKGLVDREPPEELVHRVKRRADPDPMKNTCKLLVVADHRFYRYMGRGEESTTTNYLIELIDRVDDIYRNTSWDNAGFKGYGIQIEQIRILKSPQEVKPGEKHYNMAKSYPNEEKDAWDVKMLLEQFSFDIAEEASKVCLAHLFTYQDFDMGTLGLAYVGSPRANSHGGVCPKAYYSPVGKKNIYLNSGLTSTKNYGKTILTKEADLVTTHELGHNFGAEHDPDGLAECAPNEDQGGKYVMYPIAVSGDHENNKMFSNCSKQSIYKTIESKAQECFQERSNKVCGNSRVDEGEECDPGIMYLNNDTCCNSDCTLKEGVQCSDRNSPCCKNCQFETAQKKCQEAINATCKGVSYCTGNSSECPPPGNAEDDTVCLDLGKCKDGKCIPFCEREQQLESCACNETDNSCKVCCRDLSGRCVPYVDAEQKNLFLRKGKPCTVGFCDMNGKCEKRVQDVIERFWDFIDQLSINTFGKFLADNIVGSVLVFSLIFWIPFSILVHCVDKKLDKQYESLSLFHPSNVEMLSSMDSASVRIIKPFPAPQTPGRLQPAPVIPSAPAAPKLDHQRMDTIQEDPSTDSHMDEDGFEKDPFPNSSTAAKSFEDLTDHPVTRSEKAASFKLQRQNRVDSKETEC

[4] = target: Matrix metalloproteinase-14 (Homo sapiens, UniProt P50281); experiment: Inhibition of MMP14
[5] = target: T2, Disintegrin and metalloproteinase domain-containing protein 17
Description: Inhibition of TACE in human whole blood assay

IC50 (Interstitial collagenase) [nM]	IC50 (Stromelysin-1) [nM]	IC50 [2] [nM]	IC50 [4] [nM]	Structure (SMILES)	IC50 [1] [nM]	IC50 (Collagenase 3) [nM]	IC50 [3] [nM]	IC50 [5] [nM]
30000	141	10300	–	Cc1cc(COc2ccc([C@]3(C)CCN([C@H](C)C(=O)NO)C3=O)cc2)c2ccccc2n1	2050	1420	–	–
–	–	–	–	CC#CCOc1ccc(S(=O)(=O)CC2(C(=O)NO)CCN(S(=O)(=O)N(C)C)CC2)cc1	61.3	229	1.8	–
–	–	–	–	CC#CCOc1ccc(S(=O)(=O)CC2(C(=O)NO)CCN(S(=O)(=O)N3CCOCC3)CC2)cc1	51	195	1	–
–	–	–	–	CC#CCOc1ccc(S(=O)(=O)CC2(C(=O)NO)CCN(S(=O)(=O)N3CCCCC3)CC2)cc1	51	144	1.2	–
–	–	–	–	CC#CCOc1ccc(S(=O)(=O)CC2(C(=O)NO)CCN(S(=O)(=O)N3CCN(C(C)=O)CC3)CC2)cc1	20	104	1.5	–
–	–	–	–	CC#CCOc1ccc(S(=O)(=O)CC2(C(=O)NO)CCN(S(=O)(=O)N3CCC[C@H]3COC)CC2)cc1	58	190	1.5	–
–	–	–	–	CC#CCOc1ccc(S(=O)(=O)CC2(C(=O)NO)CCN(S(=O)(=O)N3CCC[C@@H]3CO)CC2)cc1	172	354	1.4	–
2680	–	920	14800	CC#CCOc1ccc(S(=O)(=O)CC2(C(=O)NO)CCN(Cc3c(Cl)cncc3Cl)CC2)cc1	555	259	–	–
–	–	–	–	CC#CCOc1ccc(S(=O)(=O)CC2(C(=O)NO)CCN(S(=O)(=O)C(C)(C)C)CC2)cc1	73	238	< 1	–
–	–	–	–	CC#CCOc1ccc(S(=O)(=O)CC2(C(=O)NO)CCN(S(=O)(=O)CC3CCCCC3)CC2)cc1	11	72	< 1	–
–	–	–	–	CC#CCOc1ccc(S(=O)(=O)CC2(C(=O)NO)CCN(S(=O)(=O)CCN3CCOCC3)CC2)cc1	37	43	2.2	–
–	–	–	–	CC#CCOc1ccc(S(=O)(=O)CC2(C(=O)NO)CCN(S(=O)(=O)C(C)CN3CCOCC3)CC2)cc1 (stereo unspecified)	37	130	1.4	–
–	–	–	–	CC#CCOc1ccc(S(=O)(=O)CC2(C(=O)NO)CCN(S(=O)(=O)C3CCCC3)CC2)cc1	54	155	1.3	–
–	–	–	–	CC#CCOc1ccc(S(=O)(=O)CC2(C(=O)NO)CCN(S(=O)(=O)C3CCCCC3)CC2)cc1	4	24.4	2.8	–
–	–	–	–	CC#CCOc1ccc(S(=O)(=O)CC2(C(=O)NO)CCN(c3ccccn3)CC2)cc1	62.6	205	1.33	–
–	–	–	–	CC#CCOc1ccc(S(=O)(=O)CC2(C(=O)NO)CCN(c3ccncc3)CC2)cc1	2060	2040	5.6	–

IC50 (Interstitial collagenase) [nM]	IC50 (Stromelysin-1) [nM]	IC50 [2] [nM]	IC50 [4] [nM]	Structure (SMILES)	IC50 [1] [nM]	IC50 (Collagenase 3) [nM]	IC50 [3] [nM]	IC50 [5] [nM]
–	–	–	–	CC#CCOc1ccc(S(=O)(=O)CC2(C(=O)NO)CCN(c3nc4ccccc4n3C)CC2)cc1	176	166	< 1	–
–	–	–	24000	CC#CCOc1ccc(S(=O)(=O)CC2(C(=O)NO)CCN(S(=O)(=O)c3c(C)noc3C)CC2)cc1	664	2280	–	–
–	–	–	–	CC#CCOc1ccc(S(=O)(=O)CC2(C(=O)NO)CCN(S(=O)(=O)c3cn(C)c(C)n3)CC2)cc1	19	147	3	–
–	–	–	–	CC#CCOc1ccc(S(=O)(=O)CC2(C(=O)NO)CCN(S(=O)(=O)c3ccc(Cl)s3)CC2)cc1	33	–	7	–
–	–	–	–	CC#CCOc1ccc(S(=O)(=O)CC2(C(=O)NO)CCN(S(=O)(=O)c3cc(Cl)sc3Cl)CC2)cc1	22	23	< 1	–
–	–	–	583	CC#CCOc1ccc(S(=O)(=O)CC2(C(=O)NO)CCN(C(=O)c3ccncc3)CC2)cc1	–	21.5	2.6	–
201	–	–	–	CC#CCOc1ccc(S(=O)(=O)N2CCSC(C)(C)C2C(=O)NO)cc1 (stereo unspecified)	–	–	9	–
–	–	–	–	CC#CCOc1ccc(S(=O)(=O)CC2(C(=O)NO)CCN(S(=O)(=O)c3nc(C)sc3C)CC2)cc1	32	38	< 1	–
–	–	–	–	CC#CCOc1ccc(S(=O)(=O)CC2(C(=O)NO)CCN(S(=O)(=O)N3CCCC3)CC2)cc1	31	117	1	–
–	–	–	–	CC#CCOc1ccc(S(=O)(=O)CC2(C(=O)NO)CCN(C(=O)c3c(Cl)cncc3Cl)CC2)cc1	183	449	1.7	1300
–	–	–	–	CC#CCOc1ccc(S(=O)(=O)CC2(C(=O)NO)CCN(S(=O)(=O)Cc3ccncc3)CC2)cc1	82	295	2	–
–	–	–	–	CC#CCOc1ccc(S(=O)(=O)CC2(C(=O)NO)CCN(S(=O)(=O)C(CC)CC)CC2)cc1	58	136	1.2	–
–	–	–	–	CC#CCOc1ccc(S(=O)(=O)CC2(C(=O)NO)CCN(S(=O)(=O)C3CC3)CC2)cc1	161	1160	1.6	–
–	–	–	–	CC#CCOc1ccc(S(=O)(=O)CC2(C(=O)NO)CCN(c3nc4ccccc4o3)CC2)cc1	40	56	1.1	–
–	–	–	–	CC#CCOc1ccc(S(=O)(=O)CC2(C(=O)NO)CCN(S(=O)(=O)c3c(C)nn(C)c3C)CC2)cc1	99.5	385	< 1	–
–	1500	90000	–	Cc1cc(COc2ccc(S(=O)(=O)CC(CC3CCN(C(C)(C)C)CC3)N(O)C=O)cc2)c2ccccc2n1 (stereo unspecified)	5000	4000	12	–
